Measured values published in US10449137B2, “Antimicrobial composition” (Conopco, Inc., priority 2015, dated 2019).

Test system: E. coli ATCC 10536
Experiment: In-vitro micro-dilution assay for determination of antimicrobial activity
Assay type: cell-based
Details: for Average Residual Log (CFU/mL): E. coli ATCC 10536, 10^6 cells/mL in 10 mM sodium phosphate buffer, contact time 4 hours, about 37° C., plated on MacConkey agar; for antimicrobial action (in words): low concentration, E. coli ATCC 10536, 4 hours contact
Procedure: In-vitro Micro-dilution Assay for Determination of Antimicrobial Activity of Different Compositions:
The organism used for the assay was E. coli ATCC 10536
The procedure that was followed is given below: • a) First, the bacterial suspension corresponding to 10^6 cells/mL was prepared in 10 mM Sodium phosphate buffer. For this purpose the sodium phosphate buffer was prepared as follows: • To prepare the sodium phosphate buffer two different solutions were made. The first solution was prepared by dissolving 27.6 g of NaH2PO4.H20 (MW=138) in 500 mL of MilliQ water and made up the volume to 1 L with MilliQ water. This was then autoclaved and stored at room temperature. The molarity of the resultant solution was 0.2. • Then, the second solution was prepared by dissolving 53.62 g of […] (MW=268.1) in 500 mL of MilliQ water and made up the volume to 1 L with MilliQ water. This was then autoclaved and stored at room temperature. The molarity of the resultant solution was 0.2. • 19 mL of the first solution and 81 mL of the second solution was added together followed by the addition of 100 mL of MilliQ water to obtain a 200 mL solution of sodium phosphate buffer of molarity 0.1 with pH 7.4. • The required level of molarity that was need for the experiments were obtained by diluting the above solution. • b) Then 135 μL/well of the above bacterial suspension was taken and plated in a 96 well microtiter plate. • c) After that 15 μL of 100 mM sodium phosphate buffer was added in all well for all the samples. • d) Then the required test compositions were added in the well for the test. • e) The reaction volume for all the test samples was 300 μL. This reaction volume was adjusted by adding water. • f) The following samples were tested: • Example A: Only Culture • Example B: 1% niacinamide • Example C: 0.01% thymol • Example D: 0.01% terpineol • Example E: 0.01% thymol+0.01% terpineol • Example F: 0.01% Farnesol • Example G: 0.02% Farnesol • Example H: 1% niacinamide+0.01% Farnesol • Example I: 1% niacinamide+0.02% Farnesol • Example 1: 1% niacinamide+0.01% thymol+0.01% terpineol • Example 2: 1% niacinamide+1 μg/mL of LL-37+0.01% thymol+0.01% terpineol • For the above purpose, Thymol was procured from Nishant Aromas, India (Purity: 99%), Terpineol was also procured from Nishant Aromas, India (Purity: 99%), LL-37 (AMP) was procured from Sigma (Cat no: 94261),Niacinamide was procured from Veer Chemicals (Purity: 99%) and Farnesol was procured from Sigma-Aldrich (Cat. No: F203). • g) The contact time for the above test (for all the samples) was 4 hours and the temperature was maintained at about 37° C. • h) After the above contact time, the culture was serially diluted and plated on MacConkey Agar Medium (from Difco) and left it for 24 hours. After that, the residual colonies were counted to determine the bacterial kill/Residual Log.

Compound | Average Residual Log (CFU/mL) | antimicrobial action (in words)
CC(C)=CCCC(C)=CCCC(C)=CCO [Example F, Farnesol] | 6.40 Log (CFU/mL) | 
CC(C)=CCCC(C)=CCCC(C)=CCO [Example G, Farnesol] | 6.35 Log (CFU/mL) | 
terpineol [Example D] | 6.45 Log (CFU/mL) | not effective
NC(=O)c1cccnc1 [Example B, niacinamide] | 6.42 Log (CFU/mL) | 
Cc1ccc(C(C)C)c(O)c1 [Example C, thymol] | 6.35 Log (CFU/mL) | not effective
